# In the supplement of paper PMC10307832:
# Compound: C=CCn1c(=O)c2cnc(Nc3ccc(N4CCN(C)CC4)cc3)nc2n1-c1cccc(C(C)(C)O)n1 [Adavosertib] + CCNC(=O)c1noc(-c2cc(C(C)C)c(O)cc2O)c1-c1ccc(CN2CCOCC2)cc1 [Luminespib] (partner 0.01 µM)
# Experiment: relative viability (nuclei count vs DMSO), 5 days (fraction); higher = more cells survive
# Settings: first compound 0.01 µM
# How it was run: (§1)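 Medians of duplicate plates are given as relative viability. That measure is the nuclei count in treated wells divided by the count in vehicle wells. Counts were taken on 4× images of lung cancer cell lines in 1536-well plates, 5 days after pin-tool dosing the day after seeding with one drug alone or a fixed anchor-drug dose plus five library-drug doses (not always all listed) in √10 steps.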
row,Cell Line,relative viability
1,201T,1.1
2,A-427,0.877
3,ABC-1,0.799
4,BEN,0.195
5,CAL-12T,0.312
6,COR-L23,0.614
7,COR-L 105,1.03
8,ChaGo-K-1,0.502
9,EKVX,0.875
10,EPLC-272H,0.225
11,H3255,0.801
12,HARA,0.781
13,HCC-15,0.309
14,HCC-44,0.982
15,HCC-827,0.598
16,HOP-62,0.997
17,LC-2-ad,1.01
18,LCLC-97TM1,0.78
19,LCLC-103H,0.865
20,LK-2,0.163
21,LOU-NH91,0.34
22,LU99A,0.314
23,LXF-289,0.598
24,NCI-H23,0.217
25,NCI-H322M,0.764
26,NCI-H358,0.28
27,NCI-H441,0.291
28,NCI-H1563,0.562
29,NCI-H1623,0.354
30,NCI-H1792,0.595

# Same assay, conditions: first compound 0.03162 µM
row,Cell Line,relative viability
1,201T,1.04
2,A-427,1
3,ABC-1,0.357
4,BEN,0.501
5,CAL-12T,0.102
6,COR-L23,0.61
7,COR-L 105,0.698
8,ChaGo-K-1,0.683
9,EKVX,0.853
10,EPLC-272H,0.549
11,H3255,1.03
12,HARA,0.795
13,HCC-15,0.325
14,HCC-44,1.01
15,HCC-827,0.774
16,HOP-62,0.906
17,LC-2-ad,1.11
18,LCLC-97TM1,0.54
19,LCLC-103H,1.05
20,LK-2,0.216
21,LOU-NH91,0.375
22,LU99A,0.188
23,LXF-289,0.651
24,NCI-H23,0.252
25,NCI-H322M,0.789
26,NCI-H358,0.307
27,NCI-H441,0.346
28,NCI-H1563,0.544
29,NCI-H1623,0.492
30,NCI-H1792,0.446

# Same assay, conditions: first compound 0.1 µM
row,Cell Line,relative viability
1,201T,1.05
2,A-427,1.05
3,ABC-1,0.584
4,BEN,0.413
5,CAL-12T,0.601
6,COR-L23,0.667
7,COR-L 105,0.962
8,ChaGo-K-1,0.489
9,EKVX,0.84
10,EPLC-272H,0.196
11,H3255,0.937
12,HARA,0.845
13,HCC-15,0.334
14,HCC-44,0.968
15,HCC-827,0.42
16,HOP-62,0.909
17,LC-2-ad,1.26
18,LCLC-97TM1,0.982
19,LCLC-103H,0.892
20,LK-2,0.182
21,LOU-NH91,0.357
22,LU99A,0.221
23,LXF-289,0.654
24,NCI-H23,0.233
25,NCI-H322M,0.57
26,NCI-H358,0.454
27,NCI-H441,0.418
28,NCI-H1563,0.507
29,NCI-H1623,0.453
30,NCI-H1792,0.456

# Same assay, conditions: first compound 0.3162 µM
row,Cell Line,relative viability
1,201T,1.09
2,A-427,0.634
3,ABC-1,0.364
4,BEN,0.389
5,CAL-12T,0.23
6,COR-L23,0.232
7,COR-L 105,0.774
8,ChaGo-K-1,0.719
9,EKVX,0.967
10,EPLC-272H,0.182
11,H3255,0.95
12,HARA,0.366
13,HCC-15,0.359
14,HCC-44,1.3
15,HCC-827,0.667
16,HOP-62,0.945
17,LC-2-ad,1.08
18,LCLC-97TM1,0.804
19,LCLC-103H,0.837
20,LK-2,0.183
21,LOU-NH91,0.32
22,LU99A,0.198
23,LXF-289,0.783
24,NCI-H23,0.21
25,NCI-H322M,0.398
26,NCI-H358,0.359
27,NCI-H441,0.276
28,NCI-H1563,0.473
29,NCI-H1623,0.468
30,NCI-H1792,0.569

# Compound: C=CCn1c(=O)c2cnc(Nc3ccc(N4CCN(C)CC4)cc3)nc2n1-c1cccc(C(C)(C)O)n1 [Adavosertib] + O=C(CCCCCCC(=O)Nc1ccccc1)NO [Vorinostat] (partner 1 µM)
# Experiment: as above
# Settings: first compound 0.01 µM
# How it was run: as §1
row,Cell Line,relative viability
1,201T,0.953
2,A-427,0.872
3,ABC-1,1.17
4,BEN,0.628
5,CAL-12T,0.797
6,COR-L23,0.486
7,COR-L 105,0.892
8,ChaGo-K-1,0.747
9,EKVX,0.843
